In US8633313B2, “Heterocyclic compounds and their uses” (Amgen Inc., priority 2009, dated 2014):

Tests used:
[1] = tested on: rheumatoid arthritis model; conditions: in vivo; cited from earlier work
[2] = tested on: systemic lupus erythematosis model; conditions: in vivo; cited from earlier work
PI3K delta = target: T1, PI3K delta (Homo sapiens, UniProt O00329); assay: In vitro enzyme assay, PI3K delta biochemical potency; conditions: comparison of the two separated enantiomers
T1 construct: Full length p110 subunits of PI3k α, β and δ, N-terminally labeled with polyHis tag; polyHis (N); made in house; host or cells: Sf9 insect cells (baculovirus)
Description: Full length p110 subunits of PI3k α, β and δ, N-terminally labeled with polyHis tag, were coexpressed with p85 with Baculo virus expression vectors in sf9 insect cells. P110/p85 heterodimers were purified by sequential Ni-NTA, Q-HP, Superdex-100 chromatography. Purified α, β and δ isozymes were stored at −20° C. in 20 mM Tris, pH 8, 0.2M NaCl, 50% glycerol, 5 mM DTT, 2 mM Na cholate. Truncated PI3Kγ, residues 114-1102, N-terminally labeled with polyHis tag, was expressed with Baculo virus in Hi5 insect cells. The γ isozyme was purified by sequential Ni-NTA, Superdex-200, Q-HP chromatography. The γ isozyme was stored frozen at −80° C. in NaH2PO4, pH 8, 0.2M NaCl, 1% ethylene glycol, 2 mM β-mercaptoethanol.
Assays were performed in 25 μL with the above final concentrations of components in white polyproplyene plates (Costar 3355). Phospatidyl inositol phosphoacceptor, PtdIns(4,5)P2 P4508, was from Echelon Biosciences. The ATPase activity of the alpha and gamma isozymes was not greatly stimulated by PtdIns(4,5)P2 under these conditions and was therefore omitted from the assay of these isozymes. Test compounds were dissolved in dimethyl sulfoxide and diluted with three-fold serial dilutions. The compound in DMSO (1 μL) was added per test well, and the inhibition relative to reactions containing no compound, with and without enzyme was determined. After assay incubation at rt, the reaction was stopped and residual ATP determined by addition of an equal volume of a commercial ATP bioluminescence kit (Perkin Elmer EasyLite) according to the manufacturer's instructions, and detected using a AnalystGT luminometer.

p110δ = target: T2, p110δ (Homo sapiens, UniProt O00329); conditions: cited from earlier work
T2 sequence (O00329 1-1044): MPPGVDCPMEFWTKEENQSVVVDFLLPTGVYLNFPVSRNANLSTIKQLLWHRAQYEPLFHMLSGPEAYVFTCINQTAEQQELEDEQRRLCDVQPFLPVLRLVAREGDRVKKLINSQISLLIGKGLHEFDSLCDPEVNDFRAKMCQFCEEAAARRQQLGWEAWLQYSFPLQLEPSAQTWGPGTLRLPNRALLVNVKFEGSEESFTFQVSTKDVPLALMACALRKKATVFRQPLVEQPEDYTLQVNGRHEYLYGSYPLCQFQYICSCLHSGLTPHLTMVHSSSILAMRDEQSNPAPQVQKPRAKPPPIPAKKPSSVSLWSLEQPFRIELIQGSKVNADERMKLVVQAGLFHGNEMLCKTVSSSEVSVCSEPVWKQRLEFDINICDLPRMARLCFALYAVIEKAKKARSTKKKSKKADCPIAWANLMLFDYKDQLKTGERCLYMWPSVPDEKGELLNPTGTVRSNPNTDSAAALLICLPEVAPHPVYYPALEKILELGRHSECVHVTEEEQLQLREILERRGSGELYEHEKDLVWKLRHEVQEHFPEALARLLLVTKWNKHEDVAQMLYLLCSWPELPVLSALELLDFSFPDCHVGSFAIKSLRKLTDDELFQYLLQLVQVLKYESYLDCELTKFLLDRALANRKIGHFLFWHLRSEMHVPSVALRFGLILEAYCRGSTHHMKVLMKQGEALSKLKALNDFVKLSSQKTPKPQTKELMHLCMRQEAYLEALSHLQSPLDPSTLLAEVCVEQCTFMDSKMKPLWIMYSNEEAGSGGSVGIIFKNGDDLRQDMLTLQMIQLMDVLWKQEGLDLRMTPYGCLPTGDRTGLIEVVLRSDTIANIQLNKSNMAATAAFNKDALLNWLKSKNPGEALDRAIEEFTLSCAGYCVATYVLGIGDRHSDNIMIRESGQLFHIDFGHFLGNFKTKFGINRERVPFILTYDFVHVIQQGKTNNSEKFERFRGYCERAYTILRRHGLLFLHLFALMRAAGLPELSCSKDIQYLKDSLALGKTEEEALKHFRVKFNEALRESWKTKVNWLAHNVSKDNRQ

protein kinases = conditions: cited from earlier work
[3] = tested on: ovalbumin-induced airway inflammation; conditions: cited from earlier work

T1 sequence (P27986 whole entry partner, one chain of several): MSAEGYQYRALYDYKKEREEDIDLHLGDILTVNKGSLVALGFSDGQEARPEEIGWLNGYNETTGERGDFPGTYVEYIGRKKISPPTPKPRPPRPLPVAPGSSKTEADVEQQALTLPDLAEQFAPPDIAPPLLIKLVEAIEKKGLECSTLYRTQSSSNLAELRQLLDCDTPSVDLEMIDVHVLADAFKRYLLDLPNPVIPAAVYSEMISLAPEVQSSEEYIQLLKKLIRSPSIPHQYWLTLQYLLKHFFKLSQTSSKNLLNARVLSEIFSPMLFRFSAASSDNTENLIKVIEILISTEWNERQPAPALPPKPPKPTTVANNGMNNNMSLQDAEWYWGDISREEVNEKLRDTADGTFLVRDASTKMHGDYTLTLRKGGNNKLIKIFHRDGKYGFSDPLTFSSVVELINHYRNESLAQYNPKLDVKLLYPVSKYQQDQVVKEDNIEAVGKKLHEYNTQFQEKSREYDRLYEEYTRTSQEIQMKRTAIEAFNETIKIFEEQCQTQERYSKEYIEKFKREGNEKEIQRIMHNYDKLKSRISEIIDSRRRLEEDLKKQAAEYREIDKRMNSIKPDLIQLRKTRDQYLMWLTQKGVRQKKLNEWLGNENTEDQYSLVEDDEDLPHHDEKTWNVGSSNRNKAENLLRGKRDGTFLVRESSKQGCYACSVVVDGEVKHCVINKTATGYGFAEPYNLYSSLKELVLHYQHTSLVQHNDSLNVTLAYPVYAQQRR

Structure (SMILES)	PI3K delta biochemical potency, one isomer relative to the other (PI3K delta)	other results
O=C1NC(=O)/C(=C\c2ccc3nccnc3c2)S1 [AS 605240]	–	efficacy in a mouse model of rheumatoid arthritis [1]: efficacious; onset of disease in a model of systemic lupus erythematosis [2]: delay onset of disease
C[C@@H](Nc1ncnc(N)c1C#N)c1nc2cccnc2cc1-c1ccccc1 (single isomer, unassigned; isomer 4) [Example 4 R-isomer]	less potent	–
C[C@@H](Nc1ncnc(N)c1C#N)c1cc2ncccc2nc1-c1cc(F)cc(F)c1 (single isomer, unassigned; isomer 4) [Example 3 R-isomer]	less potent	–
Cc1ccccc1-n1c(Cn2cnc3c(N)ncnc32)nc2cccc(C)c2c1=O [IC87114]	–	inhibition of p110δ (p110δ): high nanomolar range (triple digit); activity against any protein kinases tested (protein kinases): no activity; inflammation and disease in a murine model of asthma [3]: significantly ameliorate inflammation and disease
C[C@H](Nc1ncnc(N)c1C#N)c1cc2ncccc2nc1-c1cc(F)cc(F)c1 (single isomer, unassigned; isomer 4) [Example 3 S-isomer]	more potent	–

Second part, led by results:

PI3K delta biochemical potency, one isomer relative to the other (PI3K delta)	Structure (SMILES)	other results
more potent	C[C@H](Nc1ncnc(N)c1C#N)c1nc2cccnc2cc1-c1ccccc1 (single isomer, unassigned; isomer 4) [Example 4 S-isomer]	–
less potent	C[C@@H](Nc1ncnc(N)c1C#N)c1cc2ncccc2nc1-c1ccccc1F (single isomer, unassigned; isomer 4) [Example 2 R-isomer]	–
more potent	C[C@H](Nc1ncnc(N)c1C#N)c1cc2ncccc2nc1-c1ccccc1F (single isomer, unassigned; isomer 4) [Example 2 S-isomer]	–
